Molecules are shown by their SMILES. Values joined by “and” are separate entries in the source; they are usually repeats but may differ in a detail not shown here. Equal entries are not always repeated.

From patent US11607398B2, “Chlorogenic acid composition and method of weight management” (Vidya Herbs, Inc., priority 2015, dated 2023) come the findings set out here.

A short description of data set [1]: Reducing power assay (Fe3+ to Fe2+). It is filed as biochemical. On the set-up: Reducing power activity: unit not given here.
Data set [2] is described as follows: Superoxide anion scavenging activity (NBT/NADH/PMS). In kind it is biochemical.
Procedure: Prepared all the solutions in this experiment using phosphate buffer (pH 7.4). Added 1 ml of NBT (156 μM), 1 ml of NADH (468 μM) and 3 ml of test samples to all test tubes. The reaction was started by adding 100 ml of PMS (60 μM) and incubated the mixture at 25° C. for 5 min followed by measurement of absorbance at 560 nm. The percentage of scavenging was calculated using formula: % Scavenging=Ac−As/Ac×100 Where AC was the absorbance of the control (blank) and As was the absorbance in the presence of the composition.
A short description of data set [3]: DPPH radical scavenging assay. It is filed as biochemical.
Procedure: The free radical scavenging capacity of the test sample was determined using DPPH scavenging assay. DPPH solution was prepared in 95% methanol. Freshly prepared DPPH solution was taken in test tubes and different concentration of test samples were added and incubated for 20 min. The absorbance was read at 517 nm using a spectrophotometer. Blank was prepared containing the same volume of reaction mixture without any tested samples. The percentage of scavenging was calculated using the formula: % Scavenging=Ac−As/Ac×100 Where AC was the absorbance of the control (blank) and AS was the absorbance in the presence of the composition (Braca et al., 2001).
The next data set has as its system calf thymus DNA. As to the kind of experiment: Protective effect on DNA scission induced by hydroxyl radical (TBA assay). It is filed as biochemical. The procedure:
In this assay hydroxyl radicals are typically generated within a mixture of ascorbic acid, H2O2 and Fe3+-ethylenediaminetetracetic acid (EDTA); those radicals that are not scavenged by other components of the reaction mixture will eventually attack deoxyribose, thus degrading it into a series of fragments.
The experiment was conducted using calf thymus DNA. Briefly, sample was dissolved in ethanol at 1 mg/mL. 50 μl of different concentration of sample was then separately taken into mini tubes followed by addition of 400 μL of phosphate buffer (0.2 mol/L, pH 7.4). Subsequently, 50 μL DNA sodium, 50 μL H2O2, 50 μL FeCl3 and 50 μL Na2EDTA (1 mmol/L) were added. The reaction was initiated by adding 50 μL ascorbic acid (18 mmol/L) and the total volume of the reaction mixture was adjusted to 800 μL with buffer. After incubation in a water bath at 55° C. for 20 min, the reaction was terminated by adding 250 μL TCA.
The color was then developed by addition of 150 μL of TBA and heating in an oven at 105° C. for 15 min. The mixture was cooled and absorbance was measured at 532 nm against the buffer (as blank). The percent of protection against DNA damage is expressed Protective effect %=(1−A/A0)×100 Where A0 is the absorbance of the mixture without sample, and A is the absorbance of the mixture with sample. Results

Data set [4] concerns Salmonella typhimurium TA 100. In kind it is cell-based. Particulars: TA 100, +s9, positive control, concentration not given.
For data set [5], the system named is Salmonella typhimurium TA 98. As to the kind of experiment: Ames Salmonella mutagenicity test (preincubation method), strain TA 98. In kind it is cell-based. The following applies: TA 98, +s9, positive control, concentration not given.

`O=C1O[C@H]([C@@H](O)CO)C(O)=C1O` [Ascorbic acid]: the “Absorbance (reductive capability, 700 nm)” value in data set [1] (100 μg/ml) amounted to 0.970. For the same molecule, the Reducing power activity in data set [1] (20 (Table 7; range 20-100 μg/ml per text)) came out at 15.46; in data set [1] (40 (Table 7)) it was 16.60; in data set [1] (60 (Table 7)), 16.61; in data set [1] (80 (Table 7)), 17.33; in data set [1] (100 (Table 7)), 18.59. Further, the “% inhibition (superoxide scavenging activity)” value in data set [2] (20 μg/ml) turned out to be 84.80%; in data set [2] (40 μg/ml), 85.20%; in data set [2] (60 μg/ml), 88.40%; in data set [2] (80 μg/ml), 89.20%; in data set [2] (100 μg/ml), 89.60%. Also, the “Absorbance @560 nm” value worked out at 0.038 in data set [2] (20 μg/ml); 0.037 in data set [2] (40 μg/ml); 0.029 in data set [2] (60 μg/ml); 0.027 in data set [2] (80 μg/ml); 0.026 in data set [2] (100 μg/ml). Besides, the “% inhibition (DPPH scavenging activity)” value is 83.21% in data set [3] (20 μg/ml); 90.88% in data set [3] (40 μg/ml); 94.53% in data set [3] (60 μg/ml); 94.89% in data set [3] (80 μg/ml); 96.72% in data set [3] (100 μg/ml); 96.71% in data set [3] (100 μg/ml, listed as ascorbic acid). The “Absorbance @517 nm” value in data set [3] (20 μg/ml) was 0.046; in data set [3] (40 μg/ml), 0.025; in data set [3] (60 μg/ml), 0.015; in data set [3] (80 μg/ml), 0.014; in data set [3] (100 μg/ml), 0.009.
Consider `COc1ccc(O)c(C(C)(C)C)c1` [BHA], for which the “% protective effect (DNA damage)” value was 15.79 ± 0.89% in the data set on calf thymus DNA (10 μg/ml); 19.25 ± 1.09% in the data set with calf thymus DNA (20 μg/ml); 32.50 ± 2.12% in the data set on calf thymus DNA (40 μg/ml); 39.16 ± 0.33% in the data set with calf thymus DNA (60 μg/ml); 43.04 ± 0.29% with calf thymus DNA (80 μg/ml); 51.37% and 51.37 ± 4.06% with calf thymus DNA (100 μg/ml).
For the molecule `Nc1ccc2cc3ccccc3cc2c1` [PC 2AF, 2-aminoanthracene], the results for the “Revertant colonies/plate (Mean n = 2 ± S.D.)” value in data set [4] and in data set [5] were 2737 ± 4.9 Revertant colonies/plate and 1560 ± 3.53 Revertant colonies/plate, respectively.
